≈ marks a conversion by molar mass, not a printed value. Where “and” joins values, the source holds several entries; their conditions need not be identical. Equal entries are not always repeated. Where a SMILES comes first, the peptide text is derived from it.
What was measured:
U87 cells = assay: DNA transfection with p-Luc plasmid, luciferase expression; settings: 1.5 µg pDNA with 7.5-25 µg peptide, 2 h 30 min, read one day post-transfection, mean of duplicates, result in words
Procedure: In vitro cell transfection experiments were performed using the plasmid p-Luc (7.6 kb), which is an expression plasmid encoding the firefly luciferase gene under the control of the human cytomegalovirus (CMV) immediate–early promoter. In total, 55,000 U87 cells were plated in 48-well plates one day before the experiment was performed. For transfection, 0.25 mL of serum-free culture medium containing the DNA complexes was deposited into each well of the duplicate. After incubation for approximately 2 h 30 min at 37 °C the medium was replaced with a fresh one containing serum. Luciferase activity was measured as described below in the cell lysate one day after transfection.
Transfection complexes were prepared as follows: for a duplicate, 1.5 μg of plasmid DNA and the desired amount of peptide were each diluted into 25 μL of acetate buffer pH 5 and gently mixed. DNA complexes were generated using increasing peptide/DNA w/w ratios. After 20 min of incubation at room temperature, the mixture was diluted with culture medium to obtain a final volume of 0.5 mL.
For luciferase activity, cells were harvested in 100 μL of lysis buffer (8 mM MgCl2, 1 mM DTT, 1 mM EDTA, 0.6% Triton X-100, 15% glycerol, and 25 mM Tris-phosphate buffer pH 7.8). The cell lysate was then transferred into Eppendorf tubes and centrifuged for 7 min at 10,000× g to pellet debris. Luciferase light units were measured in a 96-well plate format with a Centro LB luminometer (Berthold) from an aliquot of the supernatant (2 μL) with 1 s integration after automatic injection of 50 μL assay buffer (lysis buffer without Triton X-100 but supplemented with 2 mM ATP) and 50 μL of a luciferin solution (167 μM in water). Luciferase background was subtracted from each value and the protein content of the transfected cells was measured by Bradford dye-binding using the BioRad protein assay (Bio-Rad). The transfection efficiency was expressed as light units/s/mg protein (light units measured over a period of 1 s, and the values were then normalized after measurement of the amount of protein present in each well). The reported values are the mean of duplicates. Error bars represent the standard deviation of the mean.
glioblastoma U87 cells. Increasing amounts of peptide were mixed with a constant amount of reporter
plasmid (1.5 µg per duplicate of pDNA) and the complexes were incubated for 2h 30min with the
cells plated in 48-well plates. The transfection medium was then removed and replaced with fresh
culture medium supplemented with 10% serum. Luciferase activity was measured one day post-
transfection. The transfection efficiency is expressed as light units/s/mg protein and the reported
values are the mean of duplicates. Error bars represent the standard deviation of the mean.

[1] = system: E. coli bacteria (ATCC 25922); assay: Broth microdilution antibacterial assay (MIC) in Mueller–Hinton broth, pH 5; assay type: cell-based; settings: for MIC: E. coli ATCC 25922, broth microdilution, Mueller–Hinton broth pH 5, 37 °C, 12 h, OD600, concentration at which bacterial growth reaches a minimum (at least 80% inhibited), average of two experiments, each in triplicate; for MIC50: E. coli, Mueller–Hinton broth pH 5, x50 from Origin fits of the growth curves of Figure 3 (concentration range 100 µM to 0.52 µM), fit error given, * error estimated in the range of the 1.5-fold dilution steps
Procedure: Therefore, the antibacterial properties of both series of peptides were analyzed in Mueller–Hinton (MH) broth at pH 5 by determining the minimal inhibitory concentrations (MICs).
Figure 3 Bacterial growth as a function of peptide concentration for the LAH4-Ln (A) and the LAH4-An series (B). The average of two experimental data sets (each data point derived from triplicates under the same experiment conditions) covering the concentration range 100 µM to 0.52 µM are shown by the relative bacterial growth when compared to bacteria in the absence of peptide (=100%). To guide the eye, the data have been fitted with the function ymin + (ymax − ymin)/(1 + (x/xo)^p)^s using the OriginPro software. […] The assay was performed in Mueller–Hinton broth, pH 5.
A broth microdilution assay was used to determine the minimal inhibitory concentration (MIC). A peptide aliquot of 1 mg was first solubilized in 50% ethanol (10 mM) then diluted in H2O to get a 300 μM peptide stock solution.
For all the activity tests, E. coli bacteria (ATCC® 25922^TM, Thermo Fisher Scientific, Courtaboeuf, France) were used. Briefly, some colonies from E. coli spread on gelose were resuspended in Mueller–Hinton broth, pH 7.4. After incubation at 37 °C for about 6 h this preculture was diluted to OD550nm = 0.2 in MH at pH5 and allowed to grow to reach the exponential phase (OD550nm = 1–2). After two-step dilution in MH pH5, the working bacteria suspension corresponding to 1.10^5–2.10^5 colony-forming units (CFU)/mL was obtained.
The antimicrobial testing was carried out in 96-well microplates (sterile polystyrene untreated with F-bottom, Thermo Scientific Nunc A/S, Roskilde, Denmark). The first column of the plate contains the highest final concentration (Cf) of peptide to test (two experiments were done: the first one starting at Cf 100 μM and a second one starting at 30 μM). All samples were added to the first column of the plate and subsequently spread onto the plate by a 1.5-fold dilution series in 10 steps. The last columns correspond to the positive and negative control conditions, respectively. Finally, the bacterial working suspension was distributed (50 μL at 1.10^5–2.10^5 CFU/mL in MH1X at pH 5) to each well except for the negative control (MH1X at pH5). The final volume was 100 μL/well and the range of peptide concentrations tested was from 100 μM to 1.73 μM for the first experiment and from 30 μM to 0.52 μM for the second experiment. The microplates were incubated at 37 °C for 12 h before bacterial growth was assessed by measuring the OD600. The initial bacterial density for each experiment was checked by spreading 100 μL of the working bacterial suspension, diluted 1/100 and 1/500 in MH1X, pH 5 on MH agar plates. After overnight incubation at 37 °C, the CFU were counted and the CFU/mL were determined. The percentage of bacterial growth compared to the positive control allows one to determine the MIC. The MIC values represent the average of the lowest tested peptide concentration (from both experiments) where most (at least 80%) of the bacterial growth is inhibited.

HCT116 cells = assay: Luciferase protein transduction; assay type: cell-based, human; settings: HCT116, 2 µg recombinant luciferase with 10-32 µg peptide, 3 h in serum-free medium, mean of duplicates; result in words
Procedure: To perform a rapid screening of the protein transduction activities of the two series of peptides, we selected to deliver the luciferase protein from Photinus pyralis, which has a molecular weight (MW) of 62 kDa and an isoelectric point (pI) of 6.3. Indeed, the measurement of the activity of this enzyme is fast and very sensitive. […] Increasing amounts of peptides were added to a fixed amount of luciferase, and after 3 h of incubation with the human colon cancer cells HCT116, enzymatic activity was measured.
Figure 1 Transduction of the luciferase protein. HCT116 cells in 48-well plates were treated with 2 µg of recombinant luciferase (Rec. Luc) (per duplicate) in the presence or absence of LAH4 peptides (LAH4-Ln series in (A) and LAH4-An series in (B)). After 3 h of incubation in serum-free medium, cells were washed once with 1 mL/well of phosphate buffer saline (PBS), lysed, and the luciferase activity was determined. […] For each peptide, four conditions were tested: 10, 16, 24 and 32 µg of peptide/2 µg recombinant luciferase, except for LAH4 (16, 24 and 32 µg). Non-complexed recombinant luciferase was used as the control (black bar). The hydrophilic angles are shown in italics. […] It is uncertain whether it counts as a property result. The luciferase activities are shown only as bars, with no printed numbers, and are left out.
Protein complexes were generated using increasing peptide/protein w/w ratios.
Then, 0.25 mL of serum-free medium containing the peptide/protein complexes was transferred into each well. After an incubation time of 3 h at 37 °C the medium was removed, cells were washed once with 1 mL/well of PBS, and then 100 μL of lysis buffer was added per well. Luciferase activity and protein content were measured as described above.

Compound | DNA transfection activity (luciferase activity) (U87 cells) | MIC [1] | MIC50 [1] [µM] | luciferase protein transduction efficiency (luciferase activity, light units/s/mg protein) (HCT116 cells)
CC(C)C[C@H](NC(=O)[C@H](C)NC(=O)[C@H](C)NC(=O)[C@H](CC(C)C)NC(=O)[C@H](CC(C)C)NC(=O)[C@H](Cc1c[nH]cn1)NC(=O)[C@H](CC(C)C)NC(=O)[C@H](C)NC(=O)[C@H](Cc1c[nH]cn1)NC(=O)[C@H](C)NC(=O)[C@H](CC(C)C)NC(=O)[C@H](CC(C)C)NC(=O)[C@H](C)NC(=O)[C@H](CCCCN)NC(=O)[C@@H](N)CCCCN)C(=O)N[C@@H](C)C(=O)N[C@@H](CC(C)C)C(=O)N[C@@H](Cc1c[nH]cn1)C(=O)N[C@@H](CC(C)C)C(=O)N[C@@H](C)C(=O)N[C@@H](Cc1c[nH]cn1)C(=O)N[C@@H](CC(C)C)C(=O)N[C@@H](CC(C)C)C(=O)N[C@@H](CCCCN)C(=O)N[C@@H](CCCCN)C(=O)N[C@@H](C)C(N)=O [LAH4-A1] (H-KKALLAHALHLLAALALHLAHLLKKA-NH2) | highest activity | 25 µM (≈ 69.5 µg/mL) | 13.9 (≈ 38.6 µg/mL) | among the least efficient
CC(C)C[C@H](NC(=O)[C@H](C)NC(=O)[C@H](Cc1c[nH]cn1)NC(=O)[C@H](C)NC(=O)[C@H](CC(C)C)NC(=O)[C@H](CC(C)C)NC(=O)[C@H](C)NC(=O)[C@H](CCCCN)NC(=O)[C@@H](N)CCCCN)C(=O)N[C@@H](C)C(=O)N[C@@H](Cc1c[nH]cn1)C(=O)N[C@@H](CC(C)C)C(=O)N[C@@H](C)C(=O)N[C@@H](CC(C)C)C(=O)N[C@@H](CC(C)C)C(=O)N[C@@H](C)C(=O)N[C@@H](CC(C)C)C(=O)N[C@@H](Cc1c[nH]cn1)C(=O)N[C@@H](CC(C)C)C(=O)N[C@@H](C)C(=O)N[C@@H](CC(C)C)C(=O)N[C@@H](Cc1c[nH]cn1)C(=O)N[C@@H](CC(C)C)C(=O)N[C@@H](CCCCN)C(=O)N[C@@H](CCCCN)C(=O)N[C@@H](C)C(N)=O [LAH4-L0] (H-KKALLAHALAHLALLALHLALHLKKA-NH2) | – | 6 µM (≈ 16.7 µg/mL) | 3.1 (≈ 8.61 µg/mL) | –
CC(C)C[C@H](NC(=O)[C@H](C)NC(=O)[C@H](CCCCN)NC(=O)[C@@H](N)CCCCN)C(=O)N[C@@H](CC(C)C)C(=O)N[C@@H](C)C(=O)N[C@@H](Cc1c[nH]cn1)C(=O)N[C@@H](C)C(=O)N[C@@H](CC(C)C)C(=O)N[C@@H](Cc1c[nH]cn1)C(=O)N[C@@H](CC(C)C)C(=O)N[C@@H](CC(C)C)C(=O)N[C@@H](C)C(=O)N[C@@H](CC(C)C)C(=O)N[C@@H](CC(C)C)C(=O)N[C@@H](C)C(=O)N[C@@H](CC(C)C)C(=O)N[C@@H](Cc1c[nH]cn1)C(=O)N[C@@H](CC(C)C)C(=O)N[C@@H](C)C(=O)N[C@@H](Cc1c[nH]cn1)C(=O)N[C@@H](C)C(=O)N[C@@H](CC(C)C)C(=O)N[C@@H](CCCCN)C(=O)N[C@@H](CCCCN)C(=O)N[C@@H](C)C(N)=O [LAH4-L1] (H-KKALLAHALHLLALLALHLAHALKKA-NH2) | highest activity | 20 µM and 17 µM | 8.6 (≈ 23.9 µg/mL) | among the least efficient
CC(C)C[C@H](NC(=O)[C@H](C)NC(=O)[C@H](CC(C)C)NC(=O)[C@H](Cc1c[nH]cn1)NC(=O)[C@H](Cc1c[nH]cn1)NC(=O)[C@H](C)NC(=O)[C@H](CC(C)C)NC(=O)[C@H](CC(C)C)NC(=O)[C@H](C)NC(=O)[C@H](C)NC(=O)[C@H](Cc1c[nH]cn1)NC(=O)[C@H](CC(C)C)NC(=O)[C@H](CC(C)C)NC(=O)[C@H](C)NC(=O)[C@H](CC(C)C)NC(=O)[C@H](Cc1c[nH]cn1)NC(=O)[C@H](CC(C)C)NC(=O)[C@H](CC(C)C)NC(=O)[C@H](C)NC(=O)[C@H](CCCCN)NC(=O)[C@@H](N)CCCCN)C(=O)N[C@@H](C)C(=O)N[C@@H](CC(C)C)C(=O)N[C@@H](CCCCN)C(=O)N[C@@H](CCCCN)C(=O)N[C@@H](C)C(N)=O [LAH4-L4] (H-KKALLHLALLHAALLAHHLALALKKA-NH2) | – | – | 0.8 (≈ 2.22 µg/mL) | –
CC(C)C[C@H](NC(=O)[C@H](C)NC(=O)[C@H](C)NC(=O)[C@H](Cc1c[nH]cn1)NC(=O)[C@H](CC(C)C)NC(=O)[C@H](CC(C)C)NC(=O)[C@H](C)NC(=O)[C@H](CC(C)C)NC(=O)[C@H](Cc1c[nH]cn1)NC(=O)[C@H](CC(C)C)NC(=O)[C@H](CC(C)C)NC(=O)[C@H](C)NC(=O)[C@H](CCCCN)NC(=O)[C@@H](N)CCCCN)C(=O)N[C@@H](CC(C)C)C(=O)N[C@@H](C)C(=O)N[C@@H](Cc1c[nH]cn1)C(=O)N[C@@H](CC(C)C)C(=O)N[C@@H](C)C(=O)N[C@@H](C)C(=O)N[C@@H](CC(C)C)C(=O)N[C@@H](Cc1c[nH]cn1)C(=O)N[C@@H](CC(C)C)C(=O)N[C@@H](CCCCN)C(=O)N[C@@H](CCCCN)C(=O)N[C@@H](C)C(N)=O [LAH4-L5] (H-KKALLHLALLHAALLAHLAALHLKKA-NH2) | – | below 2 µM | 1.2 (≈ 3.33 µg/mL) | the most efficient peptides
CC(C)C[C@H](NC(=O)[C@H](C)NC(=O)[C@H](C)NC(=O)[C@H](CC(C)C)NC(=O)[C@H](CC(C)C)NC(=O)[C@H](CC(C)C)NC(=O)[C@H](C)NC(=O)[C@H](CC(C)C)NC(=O)[C@H](Cc1c[nH]cn1)NC(=O)[C@H](CC(C)C)NC(=O)[C@H](CC(C)C)NC(=O)[C@H](C)NC(=O)[C@H](CCCCN)NC(=O)[C@@H](N)CCCCN)C(=O)N[C@@H](Cc1c[nH]cn1)C(=O)N[C@@H](C)C(=O)N[C@@H](Cc1c[nH]cn1)C(=O)N[C@@H](CC(C)C)C(=O)N[C@@H](C)C(=O)N[C@@H](C)C(=O)N[C@@H](CC(C)C)C(=O)N[C@@H](Cc1c[nH]cn1)C(=O)N[C@@H](CC(C)C)C(=O)N[C@@H](CCCCN)C(=O)N[C@@H](CCCCN)C(=O)N[C@@H](C)C(N)=O [LAH4-L6] (H-KKALLHLALLLAALHAHLAALHLKKA-NH2) | – | below 2 µM | 0.9 (≈ 2.5 µg/mL) | –
H-KKALLALALHHLALLAHHLALALKKA-NH2 [LAH4-L3, isomer of LAH4, LAH4-Ln series] | – | – | 1.4 | –
H-KKALLALALHHLALLALHLAHALKKA-NH2 [LAH4-L2, isomer of LAH4, LAH4-Ln series] | – | – | 4.7 | the most efficient peptides
H-KKALLHALLAALLAHLHALLAHLKKA-NH2 [LAH4-A6, isomer of LAH4, LAH4-An series] | high levels of activity | – | 2.9 | –
H-KKALLLAALHHLAALALHLAHLLKKA-NH2 [LAH4-A2, isomer of LAH4, LAH4-An series] | – | – | 5 | the most efficient peptides
H-KKALLLAALHHLLALAHHLAALLKKA-NH2 [LAH4-A3, isomer of LAH4, LAH4-An series] | – | – | 7.5 | –

From article PMC8160934, “Different Biological Activities of Histidine-Rich Peptides Are Favored by Variations in Their Design” (Toxins, 2021)
